Patent US8247211B2, “Glycopeptide antibiotics” (American Cyanamid Company, priority 2001, dated 2012)

Columns and labels:
Staphylococcus sp. = assay: In vitro antibacterial evaluation: minimum inhibitory concentration (MIC), broth dilution method; assay type: cell-based; details: for MIC Staphylococcus aureus (ATCC 29213): strain ATCC 29213; for MIC Staphylococcus aureus (GC 1131): strain GC 1131; for MIC Staphylococcus aureus (GC 4541): strain GC 4541; for MIC Staphylococcus aureus (GC 4542): strain GC 4542; for MIC Staphylococcus aureus-SMITH (GC 4543): strain GC 4543; for MIC Staphylococcus aureus (GC 4544): strain GC 4544; for MIC Staphylococcus aureus (GC 4545): strain GC 4545; for MIC Staphylococcus haemolyticus (GC 4546): strain GC 4546; for MIC Coagulase Negative Staphylococcus (GC 4547): strain GC 4547; for MIC Coagulase Negative Staphylococcus (GC 4548): strain GC 4548; for MIC Coagulase Negative Staphylococcus (GC 4549): strain GC 4549; for MIC Coagulase Negative Staphylococcus (GC 4551): strain GC 4551; for MIC Coagulase Negative Staphylococcus (GC 6257): strain GC 6257; for MIC Coagulase Negative Staphylococcus (ID-3941): strain ID-3941
How it was run: (§1)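 First, organisms are seeded at 5×10^5 CFU/mL into Muller-Hinton II […]. Next, antibiotic is applied across 64-0.06 μg/mL by broth dilution (NCCLS M7-A2). Finally, the lowest inhibitory concentration is recorded as MIC.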

Streptococcus sp. = assay: as above; assay type: cell-based; details: broth dilution, 5×10^5 CFU/mL, 18 hours at 35° C.
How it was run: as §1

Escherichia coli = assay: as above; assay type: cell-based; details: 5×10^5 CFU/mL, 18 hours at 35° C.
How it was run: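 Susceptibility determined by NCCLS-recommended broth dilution (M7-A2), Muller-Hinton II […]. Concentration span 64-0.06 μg/mL, inoculum 5×10^5 CFU/mL. Isolates include strains resistant to methicillin, penicillin and/or vancomycin.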

Enterococcus sp. = assay: as above; assay type: cell-based; details: broth dilution, 5×10^5 CFU/mL, 18 hours at 35° C.
How it was run: as §1

[1] = tested on: Staphylococcus aureus-SMITH (GC 4543); assay: Acute lethal infection in mice (ED50); assay type: in vivo; details: female CD-1 mice, intraperitoneal challenge, intravenous dose 30 min. after infection, 7 day survival ratios
How it was run: (§2)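 ED50 derived from pooled 7-day survival in three separate experiments, five mice per dose level. Single intravenous dose 30 min after intraperitoneal infection of female CD-1 mice with enough bacteria to kill untreated animals in 24-48 h.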

[2] = tested on: Streptococcus pneumoniae (GC 1894), penicillin resistant strain; assay: Acute lethal infection in mice (ED50); assay type: in vivo; details: female CD-1 mice, intraperitoneal challenge, intravenous dose 30 min. after infection, 7 day survival ratios
How it was run: as §2

[3] = tested on: Enterococcus faecalis (GC 6189), vancomycin resistant strain; assay: Acute lethal infection in mice (ED50); assay type: in vivo; details: female CD-1 mice, intraperitoneal challenge, intravenous dose 30 min. after infection, 7 day survival ratios
How it was run: as §2

[4] = broth dilution, 18 hours at 35° C.

CC(c1ccccc1)C1NC(=O)CNC(=O)C(CO)NC(=O)C(C(O)C2CNC(=N)N2C2OC(CO)C(O)C(O)C2O)NC(=O)C(C(O)C2CNC(=N)N2)NC(=O)C(Cc2ccc(OC3OC(CO)C(OC4OC5COC(C6CCCCC6)OC5C(O)C4O)C(O)C3O)cc2)NC1=O (centres unmarked) [Example 112]
1 µg/mL: MIC Staphylococcus aureus (ATCC 29213) (Staphylococcus sp.) | MIC Staphylococcus aureus (ATCC 29213) (Staphylococcus sp.; [4]) | MIC Staphylococcus aureus (GC 4541) (Staphylococcus sp.) | MIC Staphylococcus aureus (GC 4541) (Staphylococcus sp.; [4]) | MIC Staphylococcus aureus (GC 4542) (Staphylococcus sp.) | MIC Staphylococcus aureus (GC 4542) (Staphylococcus sp.; [4]) | MIC Staphylococcus haemolyticus (GC 4546) (Staphylococcus sp.) | MIC Staphylococcus haemolyticus (GC 4546) (Staphylococcus sp.; [4]) | MIC Coagulase Negative Staphylococcus (GC 6257) (Staphylococcus sp.) | MIC Coagulase Negative Staphylococcus (GC 6257) (Staphylococcus sp.; [4]) | MIC Escherichia coli (GC 4560) (Escherichia coli)
1 to 2 µg/mL: MIC Staphylococcus aureus (GC 4545) (Staphylococcus sp.) | MIC Staphylococcus aureus (GC 4545) (Staphylococcus sp.; [4]) | MIC Enterococccus faecium (GC 2243) (Enterococcus sp.) | MIC Enterococcus faecalis (GC 2242) (Enterococcus sp.)
0.19-0.28: median effective dose (ED50), Enterococcus faecalis (GC 6189) [3]
0.5 to 1 µg/mL: MIC Staphylococcus aureus (GC 1131) (Staphylococcus sp.) | MIC Staphylococcus aureus (GC 1131) (Staphylococcus sp.; [4]) | MIC Staphylococcus aureus-SMITH (GC 4543) (Staphylococcus sp.; 18 hours at 35° C.) | MIC Staphylococcus aureus-SMITH (GC 4543) (Staphylococcus sp.; [4]) | MIC Coagulase Negative Staphylococcus (GC 4547) (Staphylococcus sp.) | MIC Coagulase Negative Staphylococcus (GC 4547) (Staphylococcus sp.; [4]) | MIC Coagulase Negative Staphylococcus (GC 4548) (Staphylococcus sp.) | MIC Coagulase Negative Staphylococcus (GC 4548) (Staphylococcus sp.; [4]) | MIC Coagulase Negative Staphylococcus (GC 4549) (Staphylococcus sp.) | MIC Coagulase Negative Staphylococcus (GC 4549) (Staphylococcus sp.; [4]) | MIC Coagulase Negative Staphylococcus (GC 4551) (Staphylococcus sp.) | MIC Coagulase Negative Staphylococcus (GC 4551) (Staphylococcus sp.; [4])
32 µg/mL: MIC Escherichia coli (ATCC 25922) (Escherichia coli)
<0.12 µg/mL: MIC Streptococcus agalactiae (GC 4564) (Streptococcus sp.) | MIC Streptococcus pneumoniae (GC 4565) (Streptococcus sp.) | MIC Streptococcus pyogenes (GC 4563) (Streptococcus sp.)
2 µg/mL: MIC Enterococccus avium (GC 4558) (Enterococcus sp.) | MIC Enterococccus faecalis (ATCC 29212) (Enterococcus sp.) | MIC Enterococccus faecalis (GC 2691) (Enterococcus sp.) | MIC Enterococccus faecalis (GC 3059) (Enterococcus sp.) | MIC Enterococccus faecalis (GC 4552) (Enterococcus sp.) | MIC Enterococccus faecalis (GC 4554) (Enterococcus sp.) | MIC Enterococccus faecalis (GC 6189) (Enterococcus sp.) | MIC Enterococccus faecium (GC 4556) (Enterococcus sp.)
0.02 mg/kg: median effective dose (ED50), Streptococcus pneumoniae (GC 1894) [2]
0.5 to 2 µg/mL: MIC Staphylococcus aureus (GC 4544) (Staphylococcus sp.) | MIC Staphylococcus aureus (GC 4544) (Staphylococcus sp.; [4]) | MIC Enterococccus faecium (GC 4557) (Enterococcus sp.)
>16 µg/mL: MIC Escherichia coli (GC 4559) (Escherichia coli)
0.5 µg/mL: MIC Coagulase Negative Staphylococcus (ID-3941) (Staphylococcus sp.) | MIC Coagulase Negative Staphylococcus (ID-3941) (Staphylococcus sp.; [4]) | MIC Streptococcus pyogenes (ID-3187) (Streptococcus sp.)
2 to 4 µg/mL: MIC Enterococccus faecalis (GC 4553) (Enterococcus sp.)
0.07-0.08: median effective dose (ED50), Staphylococcus aureus-SMITH (GC 4543) [1]

CCCC(C)C1OCC2OC(OC3C(CO)OC(Oc4ccc(CC5NC(=O)C(C(C)c6ccccc6)NC(=O)CNC(=O)C(CO)NC(=O)C(C(O)C6CNC(=N)N6C6OC(CO)C(O)C(O)C6O)NC(=O)C(C(O)C6CNC(=N)N6)NC5=O)cc4)C(O)C3O)C(O)C(O)C2O1 (centres unmarked) [Example 111]
0.28 mg/kg: median effective dose (ED50), Enterococcus faecalis (GC 6189) [3]
0.14 mg/kg: median effective dose (ED50), Staphylococcus aureus-SMITH (GC 4543) [1]
2 µg/mL: MIC Enterococccus avium (GC 4558) (Enterococcus sp.) | MIC Enterococccus faecalis (ATCC 29212) (Enterococcus sp.) | MIC Enterococccus faecalis (GC 4552) (Enterococcus sp.) | MIC Enterococccus faecalis (GC 4553) (Enterococcus sp.) | MIC Enterococccus faecalis (GC 4554) (Enterococcus sp.) | MIC Enterococccus faecium (GC 4556) (Enterococcus sp.)
0.5 µg/mL: MIC Coagulase Negative Staphylococcus (GC 4547) (Staphylococcus sp.) | MIC Coagulase Negative Staphylococcus (GC 4547) (Staphylococcus sp.; [4]) | MIC Coagulase Negative Staphylococcus (GC 4549) (Staphylococcus sp.) | MIC Coagulase Negative Staphylococcus (GC 4549) (Staphylococcus sp.; [4]) | MIC Streptococcus pneumoniae (GC 4565) (Streptococcus sp.) | MIC Streptococcus pyogenes (ID-3187) (Streptococcus sp.) | MIC Enterococccus faecium (GC 4557) (Enterococcus sp.)
1 µg/mL: MIC Staphylococcus aureus (ATCC 29213) (Staphylococcus sp.) | MIC Staphylococcus aureus (ATCC 29213) (Staphylococcus sp.; [4]) | MIC Staphylococcus aureus (GC 1131) (Staphylococcus sp.) | MIC Staphylococcus aureus (GC 1131) (Staphylococcus sp.; [4]) | MIC Staphylococcus aureus (GC 4541) (Staphylococcus sp.) | MIC Staphylococcus aureus (GC 4541) (Staphylococcus sp.; [4]) | MIC Staphylococcus aureus (GC 4542) (Staphylococcus sp.) | MIC Staphylococcus aureus (GC 4542) (Staphylococcus sp.; [4]) | MIC Staphylococcus aureus-SMITH (GC 4543) (Staphylococcus sp.; 18 hours at 35° C.) | MIC Staphylococcus aureus-SMITH (GC 4543) (Staphylococcus sp.; [4]) | MIC Staphylococcus aureus (GC 4544) (Staphylococcus sp.) | MIC Staphylococcus aureus (GC 4544) (Staphylococcus sp.; [4]) | MIC Staphylococcus aureus (GC 4545) (Staphylococcus sp.) | MIC Staphylococcus aureus (GC 4545) (Staphylococcus sp.; [4]) | MIC Staphylococcus haemolyticus (GC 4546) (Staphylococcus sp.) | MIC Staphylococcus haemolyticus (GC 4546) (Staphylococcus sp.; [4]) | MIC Coagulase Negative Staphylococcus (GC 4548) (Staphylococcus sp.) | MIC Coagulase Negative Staphylococcus (GC 4548) (Staphylococcus sp.; [4]) | MIC Coagulase Negative Staphylococcus (GC 4551) (Staphylococcus sp.) | MIC Coagulase Negative Staphylococcus (GC 4551) (Staphylococcus sp.; [4]) | MIC Coagulase Negative Staphylococcus (ID-3941) (Staphylococcus sp.) | MIC Coagulase Negative Staphylococcus (ID-3941) (Staphylococcus sp.; [4]) | MIC Streptococcus agalactiae (GC 4564) (Streptococcus sp.) | MIC Enterococccus faecium (GC 2243) (Enterococcus sp.) | MIC Enterococcus faecalis (GC 2242) (Enterococcus sp.)
0.03 mg/kg: median effective dose (ED50), Streptococcus pneumoniae (GC 1894) [2]
32 µg/mL: MIC Escherichia coli (ATCC 25922) (Escherichia coli)
